Results on one compound are retold here after article PMC5575254, “An allosteric ligand-binding site in the extracellular cap of K2P channels” (Nature Communications, 2017).

In series [1] the target is T1, TREK-1 channel (Homo sapiens, UniProt O95069).
T1 construct: expressed in transfected cells; host or cells: CHO cells, transient transfection
T1 sequence (O95069 1-411 isoform O95069-2): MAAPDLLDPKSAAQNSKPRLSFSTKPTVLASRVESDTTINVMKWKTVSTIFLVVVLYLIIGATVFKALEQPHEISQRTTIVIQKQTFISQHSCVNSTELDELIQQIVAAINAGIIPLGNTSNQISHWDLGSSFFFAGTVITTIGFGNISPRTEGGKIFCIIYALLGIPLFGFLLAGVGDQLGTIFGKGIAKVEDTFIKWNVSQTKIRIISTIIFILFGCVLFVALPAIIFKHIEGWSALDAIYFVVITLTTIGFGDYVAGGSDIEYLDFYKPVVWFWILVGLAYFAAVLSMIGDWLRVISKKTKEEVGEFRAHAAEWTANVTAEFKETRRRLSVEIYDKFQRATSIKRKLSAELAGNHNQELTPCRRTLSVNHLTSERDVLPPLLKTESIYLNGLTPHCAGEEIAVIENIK
The experiment in a line: Whole-cell voltage clamp of CHO cells transiently transfected with TREK-1. The class given is cell-based. An excerpt: cDNA of the human TREK-1, TREK-2 and TRAAK channels were subcloned into the pEGFPN1 expression vector (Invitrogen), respectively. Mutations were introduced into TREK-1 or TRAAK by PCR using the QuickChange XL sitedirected mutagenesis kit (Agilent Technologies) and were subsequently confirmed by DNA sequencing.
Chinese hamster ovary (CHO) cells were provided by the Cell Bank of Chinese Academy of Sciences (Shanghai, China). CHO cells were maintained in DMEM/F12 (Gibco) supplemented with 10% fetal bovine serum (Gibco) and 100 μg ml^−1 penicillin-streptomycin (Cellgro) in a humidified incubator at 37 °C (5% CO2). For electrophysiology experiments, cells plated in 35 mm tissue culture dishes (Corning Incorporated) were transiently transfected with the plasmids using PolyJet™ reagent (SignaGen) according to the manufacturer’s instructions. Primers used in this study are listed in Supplementary Table 4.
All electrophysiological recordings were obtained using patch-clamp recordings in two different configurations: (1) whole cell for macroscopic current dose–response curves; and (2) outside-out and inside-out for macroscopic currents recordings.
All patch-clamp recordings were conducted 36–96 h after transfection with an Axopatch-200B amplifier (Molecular Devices) at room temperature (23–25 °C). The microelectrodes fashioned from 1.5 mm thin-walled borosilicate glass with filament were pulled from Flaming/Brown type micropipette puller (P-97; SUTTER INSTRUMENT) with the resistances of 3–7 MΩ (whole cell) or 7–15 MΩ (outside-out) when filled with a solution containing (in mM): 140 KCl, 2 MgCl2, 10 EGTA, 1 CaCl2, 10 HEPES (pH 7.3, adjusted with KOH). External solution contained (in mM): 150 NaCl, 5 KCl, 0.5 CaCl2, 1.2 MgCl2, 10 HEPES (pH 7.3, adjusted with NaOH). The current signals were filtered at 1 kHz and digitized at a 10 kHz sampling frequency by using DigiData 1440 A.
Data of whole-cell voltage clamp experiments were fitted using doseResp function. The half inhibition concentrations were derived from fits of the dose–response curves to the function:1 I/I0=A1+A2-A1/1+10^logx0-xP, where I 0 and I are current amplitudes before and after application of inhibitors; A 1 and A 2 are constants between 0 and 1; x is the concentration of inhibitor; x o is the concentration when 50% inhibition was reached (IC50), P is the Hill constant.

For series [2], the system named is TREK-1 internalization. The experiment in a line: Confocal microscopic analysis of channel internalization (co-localization with Rab5a). Format: cell-based, CHO-K1 cells. To be noted: 10 μM, 20 min, vs DMSO control. On the procedure: In eight-well chamber (Thermo), CHO-K1 cells were co-transfected with PEGFP-N1-TREK1 and OFP-Rab5a. After 24 h, cells were treated with 10 μM TKDC for 20 min at room temperature and DMSO as control. At the end of incubation, cells were washed with PBS, fixed with 4% paraformaldehyde and washed with PBS. Images were taken at × 100 with scan zoom 1.74 using Leica SP8 and 3D reconstruction was done using Imaris software (Bitplane) and co-localization analysis was quantified using Imaris software. An automatic threshold of red and green channels was selected. The data represent images taken from 18 different areas (n = 18).

Series [3] deals with mice. Nature of the series: Forced swimming test. The class given is in vivo, Male C57BL/6 mice. As to conditions: chronic i.p. administration 10 days; TKDC 0.5, 1, 5 mg kg-1; fluoxetine 10 mg kg-1; vs vehicle. On the procedure: (§1) Male C57BL/6 mice, aged 8 weeks (weighing 18–20 g) were used for acute and chronic drug administration and behavioral tests. The mice were housed four per cage under a 12-h light–dark cycle. Mice were raised under stable conditions with food and water ad libitum. All animal studies and experimental procedures were approved by the Animal Care Committees of the Shanghai Institute of Materia Medica, Chinese Academy of Sciences, and experiments were carried out in accordance with EU Directive 2010/63/EU on the protection of animals used for scientific purposes. […] The mice were removed to a sound-attenuating testing room 3–4 h before testing. The behavioral tests were carried out 30 min and 24 h after acute and chronic drugs administration, respectively.
The mice were performed under normal light. The apparatus was a transparent Plexiglas cylinder with 30 cm height × 10 cm diameter and the water temperature at 23–25 °C were set to prevent mice from touching the bottom with their limbs. Mice were allowed to swim for 8 min, and their activity was videotaped. There was an extra 15-min swimming in the previous day. The duration of immobility defined as floating or remaining motionless was assessed. To avoid extremely active at the beginning of swimming, the first 2 min of swimming was also excluded as the tail suspension test. […]

In series [4] the test system is mice. Nature of the series: Acute administration behavioral tests. To be noted: single i.p. injection, tests 30 min after administration. Format: in vivo, Male C57BL/6 mice. The protocol:
as §1, with “The behavioral tests were carried out 30 min and 24 h after acute and chronic drugs administration, respectively.” left out
The apparatus was made of opaque Plexiglas (50 cm × 50 cm) and placed in a room with sound proof. […] The mice were randomly placed into the center of the sheet following 30 min drugs administration and their behaviors in the open field arena were recorded for 10 min using the camera. […] Locomotor activity and exploratory behavior were measured in the open field test and each animal was placed individually at the center for a 10 min session. The total distance moved and the number of rearing was measured in this experiment. […]
The mice were performed under normal light. […] The duration of immobility defined as floating or remaining motionless was assessed. […]

Series [5] can be described thus: Solubility of TKDC (remark). The class given is physicochemical.

Turning to `CS(=O)(=O)N(CC(=O)N1CCc2ccccc2C1)c1ccc(Cl)cc1` [TKDC, N-(4-cholorphenyl)-N-(2-(3,4-dihydrosioquinolin-2(1H)-yl)-2-oxoethyl)methanesulfonamide], in series [1] (perfusion with 10 μM), the “effect on TREK-1 current” value is on record as “pronounced decreases in current”. In addition, in series [1] (whole-cell, CHO cells, WT TREK-1, mean ± s.e.m, read-out: half-maximal inhibition concentration (IC50), TREK-1), the IC50 was 4.9 ± 0.6 µM. Besides, the “TREK-1 internalization (co-localization with Rab5a)” value in series [2] is “did not significantly increase TREK-1 internalization”. The “immobility in the forced swimming test” value in series [3] was “decrease in immobility”. Besides, the “antidepressant-like effect in the acute treatment” value in series [4] is given as “fast antidepressant-like effect”. In addition, in series [5], the solubility entry was “not very soluble”.
